Assay results: US20070092577A1, “Dietary calcium for reducing the production of reactive oxygen species” (University of Tennessee Research Foundation, priority 2005, published 2007)

Experiments:
NADPH oxidase = NADPH oxidase expression in 3T3-L1 adipocytes; format: cell-based, murine; conditions: added to glucose 30 mmol/L, 48 hours; nifedipine 10 μmol/L
Description: 3T3-L1 preadipocytes were incubated at a density of 8000 cells/cm^2 (10 cm^2 dish) and grown in Dulbecco's modified Eagle's medium (DMEM) containing 10% FBS and antibiotics (adipocyte medium) at 37° C. in 5% CO2 in air. Confluent preadipocytes were induced to differentiate with a standard differentiation medium consisting of DMEM-F 10 (1:1, vol/vol) medium supplemented with 1% FBS, 1 μM dexamethasone, IBMX (0.5 mM) and antibiotics (1% Penicillin-Streptomycin). Preadipocytes were maintained in this differentiation medium for 3 days and subsequently cultured in adipocyte medium. Cultures were re-fed every 2-3 days to allow 90% of cells to reach full differentiation before conducting chemical treatment. Chemicals were freshly diluted in adipocyte medium before treatment. […] Cell viability was measured via trypan blue exclusion. Adipocyte 18s, cyclin A, NADPH oxidase, and UCP2 were quantitatively measured using a Smart Cycler Real Time PCR System (Cepheid, Sunnyvale, Calif.) with a TaqMan 1000 Core Reagent Kit (Applied Biosystems, Branchburg, N.J.). […] Reactions of quantitative RT-PCR for standards and unknown samples were also performed according to the instructions of Smart Cycler System (Cepheid, Sunnyvale, Calif.) and TaqMan Real Time PCR Core Kit (Applied Biosystems, Branchburg, N.J.). The mRNA quantitation for each sample was further normalized using the corresponding 18s quantitation.

IL-6 = IL-6 expression in RAW 264 macrophages; format: cell-based
Description: RAW 264 macrophages and 3T3-L1 preadipocytes (American Type Culture Collection) were incubated at a density of 8000 cells/cm2 (10 cm2 dish) and grown in Dulbecco's modified Eagle's medium (DMEM) containing 10% FBS and antibiotics (adipocyte medium) at 37° C. in 5% CO2 in air. Confluent 3T3-L1 preadipocytes were induced to differentiate with a standard differentiation medium consisting of DMEM-F10 (1:1, vol/vol) medium supplemented with 1% FBS, 1 μM dexamethasone, IBMX (0.5 mM) and antibiotics (1% Penicillin-Streptomycin). Preadipocytes were maintained in this differentiation medium for 3 days and subsequently cultured in adipocyte medium. Cultures were re-fed every 2-3 days to allow 90% cells to reach fully differentiation for 3T3-L1 adipocytes or grow to a confluence for RAW 264 before conducting chemical treatment.
Human adipocytes (Zen-Bio, Inc.), 3T3-L1 adipocytes, RAW264 macrophages were obtained and co-cultured by using transwell inserts with 0.4 μm porous membranes (Corning) to separate adipocytes and macrophages. All data are expressed as mean±SEM. Data were evaluated for statistical significance by analysis of one-way or two-way variance (ANOVA; means with different letter differ, p<0.05).
Adipocyte and muscle 18s, CD14, TNFα, MIP, M-CSF, IL-6 and MCP-1 were quantitatively measured using a Smart Cycler Real Time PCR System (Cepheid, Sunnyvale, Calif.) with a TaqMan 1000 Core Reagent Kit (Applied Biosystems, Branchburg, N.J.). The primers and probe sets were obtained from Applied Biosystems TaqMan® Assays-on-Demand™ Gene Expression primers and probe set collection according to manufacture's instruction. […] Reactions of quantitative RT-PCR for standards and unknown samples were also performed according to the instructions of Smart Cycler System (Cepheid, Sunnyvale, Calif.) and TaqMan Real Time PCR Core Kit (Applied Biosystems, Branchburg, N.J.). The mRNA quantitation for each sample was further normalized using the corresponding 18s quantitation.

For `C=C1/C(=C\C=C2/CCC[C@]3(C)[C@@H]([C@H](C)CCCC(C)(C)O)CC[C@@H]23)C[C@@H](O)C[C@@H]1O` [calcitriol, 1, 25-Dihydroxyvitamin D], the “effect on NADPH oxidase expression” value (NADPH oxidase) was “stimulated”, the “effect on IL-6 expression in macrophages in co-culture” value (IL-6; co-culture with differentiated 3T3-L1 adipocytes) was “further enhanced” and the “stimulation of IL-6 expression” value (IL-6; macrophages cultured alone, calcitriol 10 nmol/L, 48 hours) was 796%.
